Measured values as given in PubChem BioAssay (NCI).
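Here, GI50 denotes the concentration required for 50% inhibition of growth. TGI marks complete inhibition of growth.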

Key:
Assay in all cases: NCI tumour cell line growth inhibition, 384-well format
[1] = test system: NCI-H522 lung
[2] = test system: CCRF-CEM leukemia
[3] = test system: ACHN renal
[4] = test system: HCC-2998 colon
[5] = test system: HL-60(TB) leukemia
[6] = test system: SF-295 CNS
[7] = test system: SF-268 CNS
[8] = test system: SR leukemia
[9] = test system: HT29 colon
[10] = test system: U251 glioblastoma
[11] = test system: HCT-15 colon
[12] = test system: SNB-19 CNS
[13] = test system: IGROV1 ovarian
[14] = test system: T-47D breast
[15] = test system: MDA-MB-435 melanoma
[16] = test system: SK-MEL-28 melanoma
[17] = test system: HOP-62 NSCLC
[18] = test system: TK-10 renal
[19] = test system: CAKI-1 renal
[20] = test system: RXF 393 renal
[21] = test system: MDA-MB-468 breast
[22] = test system: UACC-257 melanoma
[23] = test system: DU-145 prostate
[24] = test system: NCI/ADR-RES ovarian
[25] = test system: RPMI-8226 leukemia
[26] = test system: OVCAR-3 ovarian
[27] = test system: HCT-116 colon
[28] = test system: SK-MEL-5 melanoma
[29] = test system: MCF7 breast
[30] = test system: NCI-H460 NSCLC
[31] = test system: LOX IMVI melanoma
[32] = test system: BT-549 breast
[33] = test system: SF-539 CNS
[34] = test system: MDA-MB-231 breast
[35] = test system: NCI-H226 lung
[36] = test system: NCI-H23 lung
[37] = test system: SK-OV-3 ovarian
[38] = test system: 786-0 renal
[39] = test system: A498 renal
[40] = test system: PC-3 prostate
[41] = test system: OVCAR-5 ovarian
[42] = test system: HOP-92 NSCLC
[43] = test system: SK-MEL-2 melanoma
[44] = test system: OVCAR-4 ovarian
[45] = test system: UACC-62 melanoma
[46] = test system: SN12C renal
[47] = test system: A549 NSCLC
[48] = test system: MOLT-4 leukemia
[49] = test system: UO-31 renal
[50] = test system: OVCAR-8 ovarian
[51] = test system: SW-620 colon
[52] = test system: K-562 leukemia
[53] = test system: NCI-H322M lung
[54] = test system: MALME-3M melanoma
[55] = test system: COLO 205 colon
[56] = test system: KM12 colon
[57] = test system: M14 melanoma

Compound: COc1cc2c(Oc3ccc(-c4cnc(Nc5ccc(F)cc5)n(C)c4=O)cc3F)ccnc2cc1OCCCN1CCOCC1
- GI50 [1]: 1.04 µM
- TGI [1]: 2.21 µM
- GI50 [2]: 1.07 µM
- TGI [2]: 2.26 µM
- GI50 [3]: 0.313 µM
- TGI [3]: 1.46 µM
- GI50 [4]: 1.17 µM
- TGI [4]: 2.4 µM
- GI50 [5]: 0.268 µM
- TGI [5]: 1.13 µM
- GI50 [6]: 0.439 µM
- TGI [6]: 1.64 µM
- GI50 [7]: 1.16 µM
- TGI [7]: 2.39 µM
- GI50 [8]: 0.513 µM
- TGI [8]: 1.68 µM
- GI50 [9]: 0.275 µM
- TGI [9]: 1.2 µM
- GI50 [10]: 1.14 µM
- TGI [10]: 2.36 µM
- GI50 [11]: 0.792 µM
- TGI [11]: 2.03 µM
- GI50 [12]: 1.26 µM
- TGI [12]: 2.52 µM
- GI50 [13]: 0.368 µM
- TGI [13]: 1.47 µM
- GI50 [14]: 1.07 µM
- TGI [14]: 2.26 µM
- GI50 [15]: 0.384 µM
- TGI [15]: 1.39 µM
- GI50 [16]: 0.258 µM
- TGI [16]: 0.923 µM
- GI50 [17]: 1.31 µM
- TGI [17]: 2.59 µM
- GI50 [18]: 1.16 µM
- TGI [18]: 2.4 µM
- GI50 [19]: 0.368 µM
- TGI [19]: 1.41 µM
- GI50 [20]: 0.189 µM
- TGI [20]: 0.541 µM
- GI50 [21]: 1.54 µM
- TGI [21]: 2.87 µM
- GI50 [22]: 0.252 µM
- TGI [22]: 1.09 µM
- GI50 [23]: 1.47 µM
- TGI [23]: 2.8 µM
- GI50 [24]: 1.18 µM
- TGI [24]: 2.41 µM
- GI50 [25]: 0.545 µM
- TGI [25]: 1.74 µM
- GI50 [26]: 0.804 µM
- TGI [26]: 2.04 µM
- GI50 [27]: 0.704 µM
- TGI [27]: 2 µM
- GI50 [28]: 0.329 µM
- TGI [28]: 1.5 µM
- GI50 [29]: 0.441 µM
- TGI [29]: 1.62 µM
- GI50 [30]: 0.526 µM
- TGI [30]: 1.79 µM
- GI50 [31]: 0.402 µM
- TGI [31]: 1.45 µM
- GI50 [32]: 0.684 µM
- TGI [32]: 1.87 µM
- GI50 [33]: 0.257 µM
- TGI [33]: 1.15 µM
- GI50 [34]: 0.748 µM
- TGI [34]: 2.03 µM
- GI50 [35]: 0.476 µM
- TGI [35]: 1.57 µM
- GI50 [36]: 0.237 µM
- TGI [36]: 1.35 µM
- GI50 [37]: 0.68 µM
- TGI [37]: 1.99 µM
- GI50 [38]: 1.24 µM
- TGI [38]: 2.49 µM
- GI50 [39]: 1.24 µM
- TGI [39]: 2.5 µM
- GI50 [40]: 1.52 µM
- TGI [40]: 2.86 µM
- GI50 [41]: 0.811 µM
- TGI [41]: 2.05 µM
- GI50 [42]: 0.0764 µM
- TGI [42]: 0.452 µM
- GI50 [43]: 0.495 µM
- TGI [43]: 1.51 µM
- GI50 [44]: 1.11 µM
- TGI [44]: 2.32 µM
- GI50 [45]: 0.288 µM
- TGI [45]: 1.25 µM
- GI50 [46]: 0.247 µM
- TGI [46]: 1.29 µM
- GI50 [47]: 0.572 µM
- TGI [47]: 1.8 µM
- GI50 [48]: 0.15 µM
- TGI [48]: 0.369 µM
- GI50 [49]: 0.409 µM
- TGI [49]: 1.43 µM
- GI50 [50]: 1.31 µM
- TGI [50]: 2.59 µM
- GI50 [51]: 0.509 µM
- TGI [51]: 1.88 µM
- GI50 [52]: 0.0107 µM
- TGI [52]: 0.0234 µM
- GI50 [53]: 0.761 µM
- TGI [53]: 2.02 µM
- GI50 [54]: 0.14 µM
- TGI [54]: 0.453 µM
- GI50 [55]: 0.227 µM
- TGI [55]: 0.761 µM
- TGI [56]: 0.308 µM
- GI50 [57]: 0.248 µM
- TGI [57]: 0.814 µM
